According to article PMC11530130, “Peripherally restricted PICK1 inhibitor mPD5 ameliorates pain behaviors in murine inflammatory and neuropathic pain models” (JCI Insight, 2024):
“And” between values parts separate entries of the source, which are not always exact repeats. Equal values may be shown once.

Key:
naive mice = assay: Single exposure place preference (sePP), naive mice; assay type: in vivo, mouse
Protocol: On days 6-8, the escape hole was moved
90 degrees, and all mice went through the second bout of training. On day nine, a second probe trial was performed testing the reversal learning of the mice.
Cancer induced bone pain was induced as described in the “Induction of cancer induced bone pain (CIBP model)"-section. For the assessment of limb use, all mice from one cage were placed in an empty transparent plastic box and left for ten min to habituate. One mouse at a time was moved by tunnel handling or scooping to an identical plastic box for the limb use test. […]
gait, 3 Insignificant limping, 2 Significant limping and shift in bodyweight towards the healthy limb 1 Significant limping and partial lack of use of ipsilateral leg 0 Total lack of use of ipsilateral leg. A score of 0 was used as a humane endpoint. Urine and faeces were cleaned from the plastic box with a dry paper towel between mice from the same cage, and a new plastic box was used for mice from different cages. The limb use test was video filmed for later […]
Assessment of static weight bearing. […]
Initial perception of the drugs was measured by single exposure place preference experiments performed in an elongated three compartment apparatus (67.5 cm x 24 cm) with a biased design of different floor textures and wall patterns and a neutral zone in the middle. […]

[1] = test system: mice, streptozocin (STZ) model of type 1 diabetes; assay: STZ model of diabetic neuropathy, von Frey; assay type: in vivo, mouse
Protocol: Induction of Diabetic neuropathy (STZ model).
Diabetes was induced by a single i.p. injection of […] streptozocin (STZ) solution (100 μL/10 g, Sigma-Aldrich S0130, batch #WXBB7152V) in male seven-week-old C57BL/6J (Charles River) mice. Glycemia was tested before, and seven days after injection. All injected mice had blood glucose concentration >350 mg/dL from day seven and were used for analgesic testing of the compounds from day 14. One mouse had to be euthanized at seven days post injection. This experiment was performed by Phenotype Expertise, Marseilles, France - Pain and CNS behaviour CRO under supervision of Stéphane Gaillard, PhD (CEO). […]
The skin wound was closed with two medical clips (Michel Suture Clips, 7.5x1.75 mm, Angthos, 12040-01). Post-surgical analgesia included s.c. injection of 5 mg/kg carprofen (Carprosan vet, 50 mg/mL mixed 1:25 in sterile ddH2O, Dechra, Le Vet Beheer B.V., Netherlands, Batch: 050520) right after surgery and the […]
following day. […]
The test battery of the CIBP model was carried out 45 or 90 min after morphine and mPD5 administration respectively to accommodate the peak efficacy […]
Mechanically evoked pain (von Frey test).
Unless otherwise specified, von Frey occurred as described in the following. Animals were habituated to the experimental room for a minimum of 60 min before initiation of the experiment. Mechanical paw withdrawal threshold (PWT) was determined by von Frey measurements of both hind paws. Von Frey filaments ranging from 0.04 to 2 g (g = gram- […]
Filaments in ascending order were applied to the frontocentral plantar surface of the hind paws.
Mice were placed in PVC plastic boxes (11.5 cm x 14 cm) on a wire mesh and allowed minimum 20 min habituation prior of experiment initiation. Each von Frey hair was applied five times with adequate resting periods between each application and number of withdrawals recorded. The withdrawal threshold was determined as the von Frey filament eliciting at least three positive trials out of the five applications in two consecutive filaments. A positive trial was defined as sudden paw withdrawal, flinching and/or paw licking induced by the filament.
For the CIBP model, two habituation sessions were performed on separated days with mice placed in the von Frey equipment for 1-1.5 hours in the presence of the experimenter on day one and random von Frey pocking with the 0.6 g filament on day two. Von Frey monofilaments (North Coast Touch Test, North Coast Medical, Inc.) with target forces of 0.04g, 0.07g, 0.16g, […]
down method” (PWT=10Xf+kδ) starting with the 0.6 g filament. Positive response was defined as; withdrawal, shaking or grooming of paw following a 2-3 second stimulation. In case, of unclear response, stimulus was repeated after 10-15 seconds.
For the STZ model, the mechanical threshold response of the injected mice was measured with […]
injection of test compounds on day 14, mechanical threshold was measured at 1 hour, 2 hours, 4 hours and 6 hours and again on day 15. […]
Thermally evoked pain (Hargreaves test).
A baseline Hargreaves test was performed on day 0 before inflammatory pain was induced as described in section 2.13. In the Hargreaves test, the mouse was placed in a container on a glass table and left to habituate for at least 15 min. Using the Hargreaves apparatus, a heat beam from beneath was directed towards the hind paws of the mouse, and the paw withdrawal time

In the case of `CCCCCCCCCCCCCC(=O)N(CCOCCOCCC(=O)N[C@@H](Cc1c[nH]cn1)C(=O)N[C@@H](Cc1c[nH]c2ccccc12)C(=O)N[C@@H](CC(C)C)C(=O)N[C@@H](CCCCN)C(=O)N[C@H](C(=O)O)C(C)C)CCOCCOCCC(=O)N[C@@H](Cc1c[nH]cn1)C(=O)N[C@@H](Cc1c[nH]c2ccccc12)C(=O)N[C@@H](CC(C)C)C(=O)N[C@@H](CCCCN)C(=O)N[C@H](C(=O)O)C(C)C` [mPD5, myristoyl-NPEG4-(HWLKV)2], the “time spent in the paired compartment, individual mice” value (naive mice; naive mice conditioned with 30 μmol/kg) is reported as 310.53 and 374.063 and 737.926 and 573.794 and 360.996 and 424.662 and 697.46, the “preference compared to PBS (intrinsic rewarding properties, sePP)” value (naive mice; naive mice, 30 μmol/kg) is reported as “did not show any preference” and the “paw withdrawal threshold, left paw, group mean” value (“paw withdrawal threshold” for short) ([1]; 2 umol/kg, +1h, n = 10) is reported as 0.44. The “paw withdrawal threshold” value ([1]; 2 umol/kg, +2h, n = 10) was 0.37, the “paw withdrawal threshold” value ([1]; 2 umol/kg, +4h, n = 10) was 0.37 and the “paw withdrawal threshold” value ([1]; 2 umol/kg, +6h, n = 10) was 0.25. The “paw withdrawal threshold” value ([1]; 2 umol/kg, D15, n = 10) was 0.17, the “paw withdrawal threshold” value ([1]; 10 umol/kg, +1h, n = 10) was 0.58 and the “paw withdrawal threshold” value ([1]; 10 umol/kg, +2h, n = 10) was 0.6. For the same compound, the “paw withdrawal threshold” value ([1]; 10 umol/kg, +4h, n = 10) was 0.38, the “paw withdrawal threshold” value ([1]; 10 umol/kg, +6h, n = 10) was 0.21 and the “paw withdrawal threshold” value ([1]; 10 umol/kg, D15, n = 10) was 0.28. For the same compound, the “extension of the effect at the highest dose” value ([1]; male mice, s.c. 10 μmol/kg) was “extended for another hour” and the “effect on mechanical hypersensitivity (PWT)” value ([1]; male mice, s.c. 2 and 10 μmol/kg, the first hour after injection) was “significant relief of mechanical hypersensitivity”.
